Entries after “also recorded” stand apart in the source; their conditions may differ.

These results are taken from patent US6177592A, “Compounds” (priority 1997, dated 2001).

For test [1], the system named is HL-60 cells. The experiment in a line: MTT growth inhibition of HL-60. In kind it is cell-based, human. Conditions: Homo sapiens, HL-60, 48 hours; for activity at 10 µM / activity at 20 µM / activity at 40 µM: read-out: degree of cell growth (ratio of absorbance at 590 nm of sample-added section to control). On the procedure: (§1) (2) To each of the wells of a 96-well microtiter plate was added 8, 40, 200 or 1000 μM aqueous solution of GM or 10 μl of water as a control. HL-60 (ATCC CCL-240) was suspended in an RPMI 1640 medium containing 10% of fetal calf serum to make the concentration 5×10^4 cells/ml and each 90 μl thereof was placed in each well of the above-mentioned microtiter plate and incubated at 37° C. for 48 hours in the presence of 5% carbon dioxide. Incubation was conducted for four hours more after addition of 10 μl of a solution (5 mg/ml) of 3-(4,5-dimethylthiazol-2-yl)-2,5-diphenyltetrzolium bromide (MTT; manufactured by Sigma) in a phosphate-buffered saline solution and the state of growth of the cells was observed under a microscope. Further, 100 μl of 2-propanol containing 0.04N hydrochloric acid was added followed by stirring and an absorbance at 590 nm was measured.
(3) To each well of the 96-well microtiter plate was added 100, 200 or 400 μM aqueous solution of GM or CM or 10 μl of water as a control and the inhibition activity of growth of HL-60 was measured by the same method as mentioned in Example 5-(2). The degree of cell growth was, however, expressed in terms of the ratio (%) of the absorbance at 590 nm of the sample-added section to that of the water-added section (the control).
(§2) (5) To each well of the 96-well microtiter plate was added 4.12, 12.3, 37.0, 111, 333 or 1000 μM aqueous solution of GD or 10 μl of water as a control. HL-60 (ATCC CCL-240) was suspended in an RPMI 1640 medium containing 10% of fetal calf serum to make the concentration 5×10^4 cells/ml and each 90 μl thereof was placed in each well of the above-mentioned microtiter plate followed by incubating at 37° C. for 48 hours in the presence of 5% carbon dioxide gas. The incubation was conducted for four hours more after addition of 10 μl of 5 mg/ml solution of 3-(4,5-dimethylthiazol-2-yl)-2,5-diphenyltetrazolium bromide (MTT; manufactured by Sigma) in a phosphate-buffered saline solution and the state of growth of the cells was observed under a microscope. In the meanwhile, 100 μl of 2-propanol containing 0.04N HCl was added followed by well stirring and the absorbance at 590 nm was measured.
(6) Cyclopentenone and L-cysteine hydrochloride were dissolved in a phosphate buffered saline solution (pH 7.2) to make their concentrations 55 mM and 80 mM, respectively and made to react at 37° C. for 15 minutes at pH 7.2. Apart of the reaction solution was analyzed by a reversed phase HPLC using a column of TSK gel ODS-80Ts (4.6 mm×250 mm; manufactured by Tosoh)at the flow rate of 1 ml/minute using 0.1% aqueous solution of trifluoroacetic acid as a mobile phase whereupon no cyclopentenone was detected. This reaction solution was a solution containing 55 mM of CD.
Degree of cell growth was, however, expressed in terms of the ratio (%) of the absorbance at 590 nm of the section to which the sample was added to that of the control where water was added.

Test [2] deals with HL-60 cells. Nature of the test: Apoptosis in HL-60 cells (apoptic bodies, DNA fragmentation). The test is classed as cell-based, human. The following applies: for apoptic bodies in the cells: at each of the cell-growth-inhibiting concentrations. On the procedure: (1) Each 0.5 ml of 0.2 mM CM, 0.8 mM CM or 1.6 mM CM was added to 4.5 ml of RPMI 1640 medium containing 10% of fetal calf serum and 2.5×10^5HL-60 cells (promyelocytic leukemia cell) (ATCC CCL-240) and incubated at 37° C. for 24 hours or 48 hours in the presence of 5% carbon dioxide gas and the numbers of viable cells were measured.
as §1
(4) HL-60 cells (ATCC CCL240) which were incubated at 37° C. in an RPMI 1640 medium (manufactured by Nissui) containing 10% of fetal calf serum (manufactured by Gibco) treated at 56° C. for 30 minutes were suspended in the above medium to make the concentration 2.5×10^5cells/4.5 ml. To this suspension was added 0.5 ml of 100 μM aqueous solution of GM (final concentration: 10 μM) followed by incubating at 37° C. in the presence of 5% carbon dioxide gas for 24 hours, 48 hours and 72 hours.
as §2

The test system of the next test is IMC. The experiment in a line: IMC/CDF1 mice macrobiotic effect. The test is classed as in vivo.
In a further test the test system is Sarcoma-180. Nature of the test: Sarcoma-180/ICR mice macrobiotic effect. The test is classed as in vivo.
Another test has as its system EAC. Nature of the test: EAC/DDY mice macrobiotic effect. In kind it is in vivo.
Test [3] has as its system Bacillus subtilis IFO 3021. Nature of the test: Antibacterial activity, viable cell numbers. In kind it is cell-based. On the procedure:
Bacillus subtilis IFO 3021 was incubated (by mans of a seed culture) overnight in a sensitive bouillon medium (manufactured by Nissui). Absorbance at 600 nm was measured and viable cell numbers were calculated from the previously-prepared calibration curve showing the relation between the viable cell numbers and absorbance at 600 nm. The seed-cultured liquid was diluted with a fresh sensitive bouillon medium to make the concentration 1×10^6 cells/ml and each 180 μl thereof was placed in each well of the 96-well microtiter plate. Each 20 μl of aqueous solution of GM (4 mg/ml or 2 mg/ml) or water was added to each well followed by allowing to a stationary culture at 37° C. for one night (main incubation) In the meanwhile, a part of the seed culture liquid was diluted with sterilized water, spread onto a sensitive bouillon agar plate medium and incubated at 37° C. for one night and the colonies were counted to measure the precise viable cell numbers.
The cultured liquid in each of the wells was diluted with sterilized water, spread onto a sensitive bouillon agar plate medium and incubated at 37° C. for one night and the colonies were counter to measure the viable cell numbers.

For the compound `N[C@@H](CSC1C=C(O)C(=O)C1)C(=O)O` (stereo partly drawn) [CM], in the test on HL-60 cells [1], the activity at 10 µM worked out at 48.9%, the activity at 20 µM came to 16.1% and the activity at 40 µM was 2.8%. For the same compound, the “apoptic bodies in the cells” value with HL-60 cells [2] was “apoptic bodies were detected”. Besides, the macrobiotic effect entry with IMC is reported as “same macrobiotic effect”. The macrobiotic effect entry with Sarcoma-180 is reported as “same macrobiotic effect”. Also, in the test on EAC, the macrobiotic effect entry was “same macrobiotic effect”. Moreover, the “antibacterial activity (in words)” value in test [3] (compared with GM) was “same results”.
Turning to `N[C@@H](CCC(=O)N[C@@H](CSC1C=C(O)C(=O)C1)C(=O)NCC(=O)O)C(=O)O` (stereo partly drawn) [GM, 2-hydroxy-4-glutathion-S-yl-2-cyclopenten-1-one], in the test with HL-60 cells [1], the activity at 10 µM worked out at 14.8%, the activity at 20 µM was 1.8% and the activity at 40 µM was found to be 3.2%. In addition, the IC100 with HL-60 cells [1] (MTT, final concentration, read-out: concentration at which growth of HL-60 cells was completely inhibited) was 4 µM. Also, the “fragmentation of DNA into a chromatin unit” value in the test on HL-60 cells [2] (10 μM GM, agarose gel electrophoresis) was “fragmentation of DNA into a chromatin unit was observed”. In addition, in the test with HL-60 cells [2], the “apoptic bodies in the cells” value is “apoptic bodies were formed in the cells; also recorded: aggregation of nuclei, reduction in size of the cells and production of apoptic bodies were detected”. The macrobiotic effect result with IMC was “same macrobiotic effect”. The macrobiotic effect entry in the test on Sarcoma-180 is reported as “same macrobiotic effect”. For the same compound, the macrobiotic effect result in the test on EAC is “same macrobiotic effect”. In addition, in test [3] (400 μg/ml final, one night at 37° C., water 1.3×10^8), the viable cell numbers was 4.4×10^7 cells/ml.
